Some test systems named below: COLO 205 colon; IGROV1 ovarian; NCI-H23 lung; SF-295 CNS; SK-MEL-2 melanoma; CCRF-CEM leukemia; OVCAR-4 ovarian; K-562 leukemia; UACC-62 melanoma; MCF7 breast.
Holding throughout (assay): NCI-60 cell line screen, 48 h

Values joined by “and” are separate entries in the source; they are usually repeats but may differ in a detail not shown here. Equal entries are not always repeated.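 In this assay, cells in 96-well plates receive the compound at five concentrations for 48 hours. Endpoints are linearly interpolated between the surrounding concentrations. The concentration for 50% growth inhibition is given as GI50. TGI: total growth inhibition.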 Bounds are passed on as bounds.

For the compound `NC(=O)CCCC(NCc1c2ccccc2nc2ccccc12)C(=O)O` (centres undefined), the TGI in the assay on COLO 205 colon was above 100 µM; in the assay with IGROV1 ovarian, above 100 µM; in the assay on NCI-H23 lung, above 100 µM; with SF-295 CNS, above 100 µM; with SK-MEL-2 melanoma, above 100 µM; in the assay on CCRF-CEM leukemia it was 71.6 µM. For the same compound, the TGI in the assay with OVCAR-4 ovarian was 41.7 µM; in the assay on K-562 leukemia, above 100 µM.

As for `CCCCCCCSc1nc2c(C(=O)OCC)ncn2c2ccccc12`, the TGI in the assay with COLO 205 colon, with IGROV1 ovarian, with NCI-H23 lung, in the assay with SF-295 CNS, in the assay with SK-MEL-2 melanoma and in the assay on CCRF-CEM leukemia was above 100 µM in each case. In addition, the TGI with UACC-62 melanoma and with K-562 leukemia was above 100 µM throughout.

On to `N#CC(c1ccccc1)c1nc2ccc(=N)cc-2n(O)c1C(C#N)c1ccccc1` (centres undefined), for which the TGI with COLO 205 colon, in the assay on IGROV1 ovarian, in the assay on NCI-H23 lung, in the assay on SF-295 CNS, in the assay with SK-MEL-2 melanoma and in the assay on CCRF-CEM leukemia was above 100 µM each time. Also, the TGI with OVCAR-4 ovarian, in the assay with UACC-62 melanoma and in the assay on K-562 leukemia was above 100 µM throughout.

In the case of `COC(=O)C1=CSC2(S1)C(C(=O)OC)=CSc1c2ssc1=Nc1ccccc1` (centres undefined), the TGI was found to be 4.37 µM in the assay on COLO 205 colon; 4.83 µM in the assay on IGROV1 ovarian; 8.43 µM with NCI-H23 lung; 7.09 µM with SF-295 CNS; 7.36 µM with SK-MEL-2 melanoma; 7.96 µM with CCRF-CEM leukemia. For the same compound, the TGI in the assay with OVCAR-4 ovarian was 8.06 µM; in the assay on UACC-62 melanoma, 3.52 µM; with MCF7 breast, above 100 µM; with K-562 leukemia, 7.38 µM.

As to `O=c1oc2ccccc2c2c(=O)c3ccc(OC/C(=N/O)c4ccc(Cl)cc4)cc3oc12`, the TGI in the assay on COLO 205 colon is 29.1 µM; in the assay with IGROV1 ovarian it was above 100 µM; with NCI-H23 lung it was 45.1 µM; with SF-295 CNS, 7.1 µM; with SK-MEL-2 melanoma, 24.1 µM; in the assay on CCRF-CEM leukemia, 60.8 µM. The TGI with UACC-62 melanoma is 24.4 µM; in the assay with MCF7 breast it was 49.6 µM; with K-562 leukemia it was 12.1 µM.

Turning to `CN(C)CCNc1nc(-c2ccc3ccccc3c2)nc2nc[nH]c12`, the TGI in the assay with COLO 205 colon was determined as 21.7 µM; in the assay with IGROV1 ovarian, 15.4 µM; with NCI-H23 lung, 23.9 µM; in the assay on SF-295 CNS it was 26.9 µM; in the assay on SK-MEL-2 melanoma, 28.1 µM; in the assay on CCRF-CEM leukemia, 52.9 µM. The TGI was 23.8 µM in the assay with OVCAR-4 ovarian, 22.9 µM in the assay with UACC-62 melanoma, 20.6 µM with MCF7 breast and above 100 µM with K-562 leukemia.

On to `Cc1ccc(S(=O)(=O)NCCSCCNS(=O)(=O)c2ccc(C)cc2)cc1`, for which the TGI in the assay with COLO 205 colon, in the assay on NCI-H23 lung, in the assay on SF-295 CNS, in the assay on CCRF-CEM leukemia, with OVCAR-4 ovarian and with MCF7 breast was above 100 µM throughout. Also, the TGI in the assay with K-562 leukemia is above 100 µM.

For the compound `Cc1ccc(Oc2ccc(C)cc2[N+](=O)[O-])cc1`, the TGI with COLO 205 colon, with IGROV1 ovarian, in the assay with NCI-H23 lung, in the assay with SF-295 CNS, with SK-MEL-2 melanoma and in the assay on CCRF-CEM leukemia was above 100 µM in each case. Moreover, the TGI in the assay on OVCAR-4 ovarian, with UACC-62 melanoma and with K-562 leukemia was above 100 µM in each case.

In the case of `CC(=O)C(O)N1C(=O)C=CC1=O` (centres undefined), the GI50 with CCRF-CEM leukemia is > 25 µM and 2.74 µM; in the assay with UACC-62 melanoma, 7170 µM; in the assay with MCF7 breast, 14200 µM. Further, in the assay with MCF7 breast, the TGI was > 25 µM and 32900 µM.

For `CC(=O)Nc1ccccc1SCCSSCCSc1ccccc1NC(C)=O`, the TGI was found to be 40.5 µM with COLO 205 colon; 46.8 µM in the assay on IGROV1 ovarian; 83.9 µM in the assay on NCI-H23 lung; 73.7 µM in the assay with SF-295 CNS; 86.5 µM in the assay with SK-MEL-2 melanoma; 70.4 µM in the assay with CCRF-CEM leukemia. The TGI in the assay on OVCAR-4 ovarian is 57.1 µM; in the assay on UACC-62 melanoma, above 100 µM; in the assay on MCF7 breast it was above 100 µM; with K-562 leukemia, above 100 µM.

For `CN(C)c1ccc(/C=N\NC(=O)CSCC(=O)N/N=C/c2ccc(N(C)C)cc2)cc1`, the TGI with COLO 205 colon, with IGROV1 ovarian, in the assay with NCI-H23 lung, in the assay on SF-295 CNS, in the assay with SK-MEL-2 melanoma and with CCRF-CEM leukemia was above 100 µM each time. Also, the TGI with OVCAR-4 ovarian, in the assay on UACC-62 melanoma, in the assay with MCF7 breast and in the assay on K-562 leukemia was above 100 µM throughout.

On to `O=c1ccc2cc(O)c(O)cc2o1`, for which the TGI in the assay on COLO 205 colon, with IGROV1 ovarian, in the assay on NCI-H23 lung, in the assay with SF-295 CNS, with SK-MEL-2 melanoma and with CCRF-CEM leukemia was above 100 µM throughout. In addition, the TGI in the assay on OVCAR-4 ovarian, with UACC-62 melanoma, in the assay on MCF7 breast and with K-562 leukemia was above 100 µM in each case.

`NC(=O)NN=C(CS)CS`: the TGI in the assay on COLO 205 colon is 46.6 µM; in the assay on IGROV1 ovarian, above 100 µM; in the assay on NCI-H23 lung it was 52.4 µM; with SF-295 CNS it was 49.5 µM; in the assay with SK-MEL-2 melanoma, 45.1 µM; in the assay on CCRF-CEM leukemia, above 100 µM. Moreover, the TGI with OVCAR-4 ovarian was above 100 µM; with UACC-62 melanoma, 72.5 µM; with MCF7 breast, above 69 µM; in the assay on K-562 leukemia it was above 100 µM.

In the case of `O=C(O[C@H]1[C@@H](O)[C@H](n2cnc3c(Cl)ncnc32)O[C@@H]1COC(c1ccccc1)(c1ccccc1)c1ccccc1)c1ccccc1`, the TGI in the assay with COLO 205 colon is 29.3 µM; in the assay on IGROV1 ovarian, above 100 µM; with NCI-H23 lung it was above 100 µM; in the assay on SF-295 CNS it was 53.9 µM; in the assay with SK-MEL-2 melanoma, 49.7 µM; in the assay with CCRF-CEM leukemia it was above 100 µM. The TGI is above 100 µM with OVCAR-4 ovarian, above 100 µM with UACC-62 melanoma, 23.4 µM in the assay on MCF7 breast and above 100 µM in the assay with K-562 leukemia.

Regarding `CCCN(C(=O)c1c(Cl)nnc(Cl)c1C(=O)c1cc(Cl)nnc1Cl)c1cc(Cl)nnc1Cl`, the TGI was 18.6 µM in the assay on COLO 205 colon; 21.2 µM in the assay with IGROV1 ovarian; 20.3 µM in the assay with NCI-H23 lung; 42.3 µM with SF-295 CNS; 33.3 µM in the assay on SK-MEL-2 melanoma; 10.6 µM in the assay with CCRF-CEM leukemia. Besides, the TGI in the assay with OVCAR-4 ovarian amounted to 38.1 µM; with UACC-62 melanoma, 24.9 µM; in the assay on MCF7 breast, 16.8 µM; in the assay on K-562 leukemia, 27.4 µM.

Source of the values: PubChem BioAssay (NCI).
